# Experimental data from patent US6632981B1, “DNA sequences encoding polypeptides having beta-1,3-glucanase activity” (Novartis Finance Corporation, priority 1988, dated 2003).
# Experiments:
# [1] = test system: chemically regulatable chimeric genes coding for GUS, AHAS or BT; test: Primer extension assay for mRNA of chemically regulatable chimeric genes; assay type: in vivo; settings: callus or regenerated plant material from transgenic plants; level proportional to amount of regulator applied
# Procedure: 50 g of total RNA is lyophilized in a 500 l Eppendorf tube. The RNA is resuspended in 30 l of radiolabeled probe solution and heated to 70′ C. for 10 minutes. The tube is slowly cooled to 37° C. and allowed to incubate overnight. Without removing the tube from the 37° C. water bath, 2 l of 10×reverse-transcriptase buffer (500 mM Tris-HCl, pH 7.5, 400 mM KCl, 30 mM MgCl2), 1 l 5 mg/ml bovine serum albumin, 5 l 100 mM dithiothreitol, 5 l 10×dNTPs (10 mM of each dNTP in H2O), 3 l H 20, 2 l RNasin (80 units), and 2 l reverse transcriptase (400 units) are added and the reaction is incubated at 37° C. for 30 minutes. To stop the reaction, 5 l of 3 M sodium acetate, pH 5, and 150 l absolute ethanol are added. The tube is left at −20° C. for 30 minutes, the precipitate is collected by centrifugation, washed with 80% ethanol and allowed to air-dry. The precipitate is resuspended in 10-20 l of loading dye (90% formamide, 0.05% bromophenol blue, 0.05% xylene cyanol, 1 mM EDTA) and the extension products are separated on a 6% sequencing gel (Maniatis, T. et al., supra). Extension products are visualized by autoradiography.
# Plant materials induced and harvested as in Examples 140 to 142 are assayed for the induction of mRNA species by the isolation of RNA and the primer extension assay as described in Example 6.
# The level of mRNA is proportional to the amount of regulator applied.
# [2] = test system: PR-1a promoter fused to a gene encoding the delta-endotoxin of Bacillus thuringensis; test: Chemical regulation of PR-1a promoter/Bacillus thuringiensis delta-endotoxin gene in nahG-expressing plants; assay type: in vivo; settings: progeny of PR-1a promoter/delta-endotoxin plants crossed to nahG-3, -8 and -10
# [3] = test system: SAR response; test: Chemical induction of SAR in nahG-expressing plants; assay type: in vivo, Nicotiana tabacum cv Xanthi-nc; settings: plants of lines nahG-3, -8 and -10 (blocked in SAR response to disease infection) treated with the inducing chemical
# Excerpt: Three lines, nahG-3, -8 and -10, were shown above to express high levels of nahG mRNA and salicylate hydroxylase protein, and to be blocked in their SAR response to disease infection.
# [4] = test system: PR-1a promoter fused to the GUS reporter gene; test: Chemical regulation of PR-1a promoter/GUS in nahG-expressing plants; assay type: in vivo; settings: progeny of PR-1a promoter/GUS plants crossed to nahG-3, -8 and -10
# Excerpt: Consequently, the chemical regulation of the PR-1a gene promoter can be utilized without the activation of the endogenous cell signal SA.
# [5] = test system: PR-1 promoter-LUC gene fusion; test: Chemical induction of the Arabidopsis PR-1 promoter-LUC gene fusion; assay type: in vivo
# Excerpt: pAtPR1-R was cleaved with XhoI and SacI and transferred to SalI/SacI cleaved pCIB200 to create a binary vector construction (pAtPR1-S) suitable for Arabidopsis transformation (see example 28). pAtPR1-S was then transferred to Agrobacterium tumefaciens strain A136/pCIB542 for transfer to Arabidopsis Dijon-0 using the method described by Wen-jun and Forde, Nucl. Acids Res. 17: 8385-8386 (1989). T2 or […] lines carrying the PR1-LUC transgene in the homozygous state were generated for chemical induction analysis.
# Leaves of transgenic Arabidopsis lines carrying the PR-1 promoter-LUC gene fusion were treated by spraying with 0.15 g/ml INA (isonicotinic acid) for 48 h. Five days later, sprayed leaves were analyzed for luciferase activity using the Promega Luciferase Assay System (Cat. #E 1500). […] In other assays, luciferase activity was measured by imaging lines for bioluminescence using intensified cameras (VIM) and photon-counting image processors (ARGUS-50 or ARGUS-100) from Hamamatsu Photonic Systems (Bridgewater, N.J.). Leaves were sprayed with INA and subsequently with a 5 mM solution of D-luciferin (Analytical Bioluminescence Laboratories, San Diego, Calif.) 24 h before and then immediately before imaging.
# [6] = test system: salicylic acid; test: Antagonism of the salicylic acid cell signal on exogenous application to a plant; assay type: in vivo; settings: applied exogenously to a plant
# Excerpt: Those skilled in the art will appreciate that other means can be employed to achieve the same effect. For instance, a second method involves the expression or overexpression in a transformed plant of a gene encoding an enzyme which catalyzes the modification; e.g., degradation, of a metabolic precursor of the signal molecule so that the plant is rendered incapable of producing the signal molecule. A third method involves the external application to the plant of antagonists of the target cell signal. […] Instead, inhibition of the cell signal response is effected. […] See, Yang and Hoffman, Ann. Rev. Plant Physiol. 35:155-189 (1984).
smiles,measurement,setting,value
"O=C(O)c1cc(Cl)nc(Cl)c1 [2,6-dichloroisonicotinic acid]","level of mRNA of the chimeric gene (GUS, AHAS or BT primer), primer extension assay",[1],elevated levels of mRNA
"O=C(O)c1cccc2nnsc12 [benzo-1,2,3-thiadiazole-7-carboxylic acid]","level of mRNA of the chimeric gene (GUS, AHAS or BT primer), primer extension assay",[1],elevated levels of mRNA
same,endotoxin gene expression,[2],express the endotoxin gene
same,SAR response,[3],shown to possess the SAR response
same,GUS expression,[4],express GUS
"O=C(O)c1ccncc1 [INA, isonicotinic acid]","bioluminescence (imaging, photon counting)","[5]; compared to water-treated controls, D-luciferin 5 mM",strongly induced bioluminescence
same,"luciferase activity, induction over controls","[5]; leaves sprayed with 0.15 g/ml for 48 h, analyzed five days later, Promega Luciferase Assay System",144 fold
"O=C(OCc1ccccc1)c1cccc2nnsc12 [benzyl benzo-1,2,3-thiadiazole-7-carboxylate]","level of mRNA of the chimeric gene (GUS, AHAS or BT primer), primer extension assay",[1],elevated levels of mRNA
"CCC(C)N(N)C(=O)c1cccc2nnsc12 (centres unmarked) [benzo-1,2,3-thiadiazole-7-carboxylic acid N-sec-butylhydrazide]","level of mRNA of the chimeric gene (GUS, AHAS or BT primer), primer extension assay",[1],elevated levels of mRNA
CC[Si](CC)(CC)c1ccccc1C(=O)O [o-triethylsilyl benzoic acid],effect on the salicylic acid cell signal,[6],antagonistic effect
"CCCOC(=O)c1cccc2nnsc12 [n-propyl benzo-1,2,3-thiadiazole-7-carboxylate]","level of mRNA of the chimeric gene (GUS, AHAS or BT primer), primer extension assay",[1],elevated levels of mRNA
